According to patent publication US8415342B2, “Besifloxacin ophthalmic composition for the treatment or control of infection” (Bausch & Lomb Incorporated, priority 2008, dated 2013):
In brackets after ≈: the same amount, converted by molar mass. Where two headings read alike, the source gives them in different places.

Columns and labels:
[1] = system: Pathogens Associated With Bacterial Conjunctivitis; assay: Integrated besifloxacin MIC data from preclinical (nonclinical) studies (Table 8); format: cell-based; details: for MIC50: read-out: MIC50
[2] = system: genetically concordant pathogens of Visit 2 or Visit 3; assay: Resistance development: PFGE and MIC testing of concordant isolate pairs from baseline and follow-up visits; format: cell-based
Procedure: PFGE testing was performed per standard procedures.
Isolate pairs from eyes with the same species at or above threshold at both baseline and follow-up visits were evaluated by Pulsed Field Gel Electrophoresis (PFGE) analysis to (i) distinguish new infections from recurrence and (ii) determine if any microbial eradication failures were correlated with antimicrobial resistance development during the study period.

[3] = Safety pharmacology: in vivo cardiovascular effects after systemic dosing
Description: The in vivo cardiovascular effects, specifically, an increase in QT duration, following besifloxacin systemic dosing were only observed after doses that were at least 300 times the intended ocular daily dose. There was no change in heart rate, blood pressure, or cardiac conduction.

bacterial conjunctivitis = assay: Study 373: besifloxacin ophthalmic suspension vs vehicle, TID 5 days; details: N = 60; for Clinical Resolution (2 indices), Resolution / Clinical Resolution (3 indices), No / Clinical Resolution (3 indices), Yes / Microbial Eradication, No / Microbial Eradication, Yes: ITT culture confirmed; for Clinical Resolution (2 indices), Non-resolution: missing or discontinued imputed as non-resolution
[4] = Proteus mirabilis Quinolone-S, N 98
[5] = Serratia marcescens Quinolone-S, N 98
[6] = Visit 3 (Day 8 or 9), primary endpoint

In the case of `N[C@@H]1CCCCN(c2c(F)cc3c(=O)c(C(=O)O)cn(C4CC4)c3c2Cl)C1` [Besifloxacin, (R)-(+)-(3-amino-2,3,4,5,6,7-hexahydro-1H-azepin-1-yl)-8-chloro-1-cyclopropyl-6-fluoro-1,4,-dihydro-4-oxo-3-quinolinecarboxylic acid], the “MIC Range” value ([1]; Propionibacterium acnes, N 21, agar dilution) is reported as 0.12 to 0.25 µg/mL, the “MIC Range” value [1, 4] is reported as 0.25 to 4 µg/mL and the MIC50 [1, 4] is reported as 0.5 µg/mL (≈ 1.27 µM). The MIC90 ([1]; Proteus mirabilis, Proteus mirabilis Quinolone-S, N 98, read-out: MIC90) was 1 µg/mL (≈ 2.54 µM), the “MIC Range” value ([1]; Pseudomonas aeruginosa Quinolone-S, N 49) was 0.5 to 4 µg/mL and the MIC50 ([1]; Pseudomonas aeruginosa, Pseudomonas aeruginosa Quinolone-R, N 51) was over 8 µg/mL. The MIC90 ([1]; Pseudomonas aeruginosa, Pseudomonas aeruginosa Quinolone-R, N 51, read-out: MIC90) was over 8 µg/mL, the MIC50 ([1]; Pseudomonas aeruginosa, Pseudomonas aeruginosa Quinolone-S, N 49) was 1 µg/mL (≈ 2.54 µM) and the MIC90 ([1]; Pseudomonas aeruginosa, Pseudomonas aeruginosa Quinolone-S, N 49, read-out: MIC90) was 2 µg/mL (≈ 5.08 µM). The MIC90 ([1]; S. aureus, value used for PK/PD ratios of Study 424) was “^aMIC90: S. aureus = 1 μg/mL”, the “MIC Range” value [1, 5] was 0.25 to 2 µg/mL and the MIC50 [1, 5] was 1 µg/mL (≈ 2.54 µM). For the same compound, the MIC90 ([1]; Serratia marcescens, Serratia marcescens Quinolone-S, N 98, read-out: MIC90) was 2 µg/mL (≈ 5.08 µM), the “MIC Range” value ([1]; Staphylococcus aureus MRSA-QR, N 73) was 0.25 to 8 µg/mL and the “MIC Range” value ([1]; Staphylococcus aureus MSSA-QR, N 12) was 0.03 to 4 µg/mL. It also gave an MIC50 ([1]; Staphylococcus aureus, MRSA, Staphylococcus aureus MRSA-QR, N 73) of 1 µg/mL (≈ 2.54 µM), an MIC50 ([1]; Staphylococcus aureus, MRSA, Staphylococcus aureus MRSA-QS, N 36) of 0.03 µg/mL (≈ 0.0762 µM) and an MIC50 ([1]; Staphylococcus aureus, MSSA, Staphylococcus aureus MSSA-QR, N 12) of 0.25 µg/mL (≈ 0.635 µM). The MIC90 ([1]; Staphylococcus aureus, MSSA, Staphylococcus aureus MSSA-QR, N 12, read-out: MIC90) was 4 µg/mL (≈ 10.2 µM), the MIC50 ([1]; Staphylococcus aureus, MSSA, Staphylococcus aureus MSSA-QS, N 80) was 0.03 µg/mL (≈ 0.0762 µM) and the MIC90 ([1]; Staphylococcus aureus, S. aureus, value used for PK/PD ratios of Study 424, read-out: MIC90) was 1 µg/mL. The “MIC Range” value ([1]; Staphylococcus epidermidis MRSE-QR, N 32) was 0.25 to 8 µg/mL, the “MIC Range” value ([1]; Staphylococcus epidermidis MSSE-QR, N 5) was 0.25 to 1 µg/mL and the “MIC Range” value ([1]; Staphylococcus epidermidis MSSE-QS, N 39) was 0.015 to 0.06 µg/mL. It also gave an MIC50 ([1]; Staphylococcus epidermidis, MRSE, Staphylococcus epidermidis MRSE-QR, N 32) of 2 µg/mL (≈ 5.08 µM), an MIC50 ([1]; Staphylococcus epidermidis, MRSE, Staphylococcus epidermidis MRSE-QS, N 23) of 0.03 µg/mL (≈ 0.0762 µM) and an MIC50 ([1]; Staphylococcus epidermidis, Staphylococcus epidermidis MSSE-QR, N 5) of 0.5 µg/mL (≈ 1.27 µM). For the same compound, the “MIC Range” value ([1]; Staphylococcus hominis Quinolone-R, N 35) was 0.125 to 2 µg/mL, the “MIC Range” value ([1]; Staphylococcus hominis Quinolone-S, N 15) was 0.015 to 0.06 µg/mL and the MIC50 ([1]; Staphylococcus hominis, Staphylococcus hominis Quinolone-S, N 15) was 0.03 µg/mL (≈ 0.0762 µM). For the same compound, the MIC90 ([1]; Staphylococcus hominis, Staphylococcus hominis Quinolone-S, N 15, read-out: MIC90) was 0.06 µg/mL (≈ 0.152 µM), the “MIC Range” value ([1]; Staphylococcus lugdunensis Quinolone-R, N 5) was 0.125 to 2 µg/mL and the “MIC Range” value ([1]; Staphylococcus lugdunensis Quinolone-S, N 10) was 0.015 to 0.06 µg/mL. It also gave an MIC50 ([1]; Staphylococcus lugdunensis, Staphylococcus lugdunensis Quinolone-R, N 5) of 0.5 µg/mL (≈ 1.27 µM), an MIC90 ([1]; Staphylococcus lugdunensis, Staphylococcus lugdunensis Quinolone-R, N 5, read-out: MIC90) of 2 µg/mL (≈ 5.08 µM) and an MIC50 ([1]; Staphylococcus lugdunensis, Staphylococcus lugdunensis Quinolone-S, N 10) of 0.03 µg/mL (≈ 0.0762 µM). For the same compound, the MIC90 ([1]; Staphylococcus lugdunensis, Staphylococcus lugdunensis Quinolone-S, N 10, read-out: MIC90) was 0.06 µg/mL (≈ 0.152 µM), the MIC50 ([1]; Streptococcus mitis, Streptococcus mitis group, N 90) was 0.06 µg/mL (≈ 0.152 µM) and the MIC90 ([1]; Streptococcus mitis, Streptococcus mitis group, N 90, read-out: MIC90) was 0.12 µg/mL (≈ 0.305 µM). The “MIC Range” value ([1]; Streptococcus oralis, N 22) was 0.03 to 2 µg/mL, the MIC50 ([1]; Streptococcus oralis, N 22) was 0.06 µg/mL (≈ 0.152 µM) and the MIC90 ([1]; Streptococcus oralis, N 22, read-out: MIC90) was 0.12 µg/mL (≈ 0.305 µM). For the same compound, the “MIC Range” value ([1]; Streptococcus pneumoniae Penicillin-S, N 123) was 0.015 to 1 µg/mL, the MIC50 ([1]; Streptococcus pneumoniae, Streptococcus pneumoniae Penicillin-I, N 28) was 0.12 µg/mL (≈ 0.305 µM) and the MIC90 ([1]; Streptococcus pneumoniae, Streptococcus pneumoniae Penicillin-I, N 28, read-out: MIC90) was 0.12 µg/mL (≈ 0.305 µM). For the same compound, the MIC50 ([1]; Streptococcus pneumoniae, Streptococcus pneumoniae Penicillin-R, N 61) was 0.12 µg/mL (≈ 0.305 µM), the MIC90 ([1]; Streptococcus pneumoniae, Streptococcus pneumoniae Penicillin-R, N 61, read-out: MIC90) was 0.12 µg/mL (≈ 0.305 µM) and the MIC50 ([1]; Streptococcus pneumoniae, Streptococcus pneumoniae Penicillin-S, N 123) was 0.12 µg/mL (≈ 0.305 µM). It also gave an MIC90 ([1]; Streptococcus pneumoniae, Streptococcus pneumoniae Penicillin-S, N 123, read-out: MIC90) of 0.12 µg/mL (≈ 0.305 µM), an MIC50 ([1]; Streptococcus pneumoniae, Streptococcus pneumoniae Quinolone-R, N 23) of 1 µg/mL (≈ 2.54 µM) and an MIC90 ([1]; Streptococcus pneumoniae, Streptococcus pneumoniae Quinolone-R, N 23, read-out: MIC90) of 4 µg/mL (≈ 10.2 µM). The MIC50 ([1]; Streptococcus pyogenes, N 201) was 0.06 µg/mL (≈ 0.152 µM), the MIC90 ([1]; Streptococcus pyogenes, N 201, read-out: MIC90) was 0.12 µg/mL (≈ 0.305 µM) and the “MIC Range” value ([1]; Streptococcus salivarius, N 2) was 0.06 µg/mL (≈ 0.152 µM). For the same compound, the “increase of MIC of Visit 2 or Visit 3 isolates versus baseline” value ([2]; Study 373, 47 genetically concordant isolate pairs) was at most 2 fold, the “increase of MIC of Visit 2 or Visit 3 isolates versus baseline” value ([2]; Study 433, 122 genetically concordant isolate pairs) was at most 2 fold and the “increase of MIC of Visit 2 or Visit 3 isolates versus baseline” value ([2]; Study 434, 65 genetically concordant isolate pairs) was at most 2 fold. For the same compound, the “dose at which an increase in QT duration was observed” value [3] was “at least 300 times the intended ocular daily dose”, the “heart rate, blood pressure, or cardiac conduction” value [3] was “no change” and the “Clinical Resolution (2 indices), Resolution” value (bacterial conjunctivitis; Visit 2 (Day 4 ± 1)) was 20 (33.3) n (%). The “Clinical Resolution (3 indices), No” value (bacterial conjunctivitis; Visit 2 (Day 4 ± 1)) was 46 (76.7) n (%), the “Clinical Resolution (3 indices), Yes” value (bacterial conjunctivitis; Visit 2 (Day 4 ± 1)) was 14 (23.3) n (%) and the “Microbial Eradication, No” value (bacterial conjunctivitis; Visit 2 (Day 4 ± 1)) was 6 (10.0) n (%). The “Microbial Eradication, Yes” value (bacterial conjunctivitis; Visit 2 (Day 4 ± 1)) was 54 (90.0) n (%), the “Clinical Resolution (2 indices), Non-resolution” value (bacterial conjunctivitis; Visit 2 (Day 4 ± 1)) was 40 (66.7) n (%) and the “Clinical Resolution (2 indices), Resolution” value (bacterial conjunctivitis; Visit 3 (Day 8 or 9)) was 44 (73.3) n (%). For the same compound, the “Clinical Resolution (3 indices), No” value (bacterial conjunctivitis; Visit 3 (Day 8 or 9)) was 23 (38.3) n (%), the “Microbial Eradication, No” value (bacterial conjunctivitis; Visit 3 (Day 8 or 9)) was 6 (10.0) n (%) and the “Clinical Resolution (2 indices), Non-resolution” value (bacterial conjunctivitis; Visit 3 (Day 8 or 9)) was 16 (26.7) n (%). The “Clinical Resolution (3 indices), Yes” value (bacterial conjunctivitis; [6]) was 37 (61.7) n (%) and the “Microbial Eradication, Yes” value (bacterial conjunctivitis; [6]) was 54 (90.0) n (%).
